Assay results taken from patent US20100226983A1, “Compositions for treatment and prevention of acne, methods of making the compositions, and methods of use thereof” (NanoBio Corporation, priority 2009, published 2010).
Read-outs that look alike come from different tables or passages of the source.

How the values were obtained:
P. acnes [1] = test: MIC and MBC against 16 P. acnes isolates in the presence of 50% artificial sebum; format: cell-based, Propionibacterium acnes; conditions: for impact of sebum on microbiological activity (MIC90/MBC90) / increase of MBC90/MBCs in the presence of sebum / increase of MIC90 in the presence of sebum: 50% sebum versus no sebum; for impact of sebum on microbiological activity (MIC90/MBC90): up to the concentrations tested; for MIC90: Cutibacterium acnes, 16 P. acnes isolates, 50% artificial sebum
Experimental: The nanoemulsions (“NB-002”) comprised, in an aqueous medium, soybean oil, Tween 20® as a nonionic surfactant, ethanol, cetylpyridinium chloride (CPC) as a cationic surfactant, EDTA, and water. Artificial sebum was prepared by adding the entire ingredients given in the Table 6 and heating at 60° C. in a water bath, with intermittent stirring until all solids melted resulting in to a clear yellow liquid ([…] et al., “Diffusion properties of model compounds in artificial sebum. Int. J. Pharm., 345:88-94 (2007)). To prepare intermediate concentrations, 100× stock solutions were serially diluted 1:1 using DMSO or DI water. Final concentrations were made by 1:50 dilutions in Wilkin Chalgren media to give 2× of the final test concentrations, with final DMSO concentrations at 1%. 50 μl of these drug concentrations were transferred to 96-well plates using multi-channel pipettes. Sebum was prewarmed to 50° C. and each well received 45 μl of sebum. After ten minutes at 35° C., five microliters of a P. acnes culture at 10^8 colony-forming units/ml was added to each well.

P. acnes [2] = test: MIC and MBC against 16 clinical isolates of P. acnes (broth microdilution, no sebum); format: cell-based, Propionibacterium acnes; conditions: for MIC Range / MBC Range: NB-00X formulations as μg CPC/ml; for MIC50 / MIC90 / MBC: Cutibacterium acnes
Experimental: The nanoemulsions (“NB-00X”) comprised, in an aqueous medium, soybean oil, Tween 20® as a nonionic surfactant, ethanol, cetylpyridinium chloride (CPC) as a cationic surfactant, EDTA, and water, and optionally, a thickening agent for the gel formulation.
Each dilution contained varying concentrations of soybean oil, Tween 20®, ethanol, CPC, and EDTA. Combination products were also evaluated; stock emulsions containing NB-00X gel (3 mg CPC/ml)+2% salicyclic acid or NB-00X gel+0.5% benzoyl peroxide (BPO) were serially diluted two-fold and each concentration was tested against 16 P. acnes isolates. In general, the standard methodology was followed for MIC and MBC determination.
Weighing of drugs and potency calculations were done as prescribed by Clinical and Laboratory Standards Institute (1). Dimethyl sulfoxide (DMSO) was used to prepare stock solutions of the water-insoluble compound tetracycline at 100× concentrations. […] Stock solutions of chlorhexidine and NB-00X were prepared at a 4× concentration in DI water.
To prepare intermediate concentrations, 100× stock solutions were serially diluted 1:1 using DMSO or DI water. Final concentrations were made by 1:50 or 1:1 dilutions in Wilkin Chalgren media (1) to give 2× of the test concentrations, with final DMSO concentrations at 1%. 50 μl of these drug concentrations were transferred to 96-well plates using multi-channel pipettes.
P. acnes strains grown on sheep blood agar for 24-48 hrs at 35° C. were used as the sources of inocula for susceptibility studies as per Clinical and Laboratory Standards Institute. […] Within 15 minutes, each well (except the negative growth controls) of the microtiter tray containing the serial dilutions of test compounds received 50 μl of inoculum, resulting into a log2 dilution of both drug and bug in each well. Verification of the colony-forming units in the inoculum was performed by diluting the adjusted inoculum preparation to […] and plating 100 μl on blood agar plate.
Microtiter and blood agar plates were incubated at 35-37° C. for 48 h in a 7.0 L AnaeroPack Jar (Mitsubishi gas chemical; No. 50-70) fitted with an anaerobic gas generating system (Misubishi, No. 10-01) and a dry anaerobic indicator strip (BBL, Becton, Dickinson & Co. #271051). MICs were read visually using a 96-well plate reader fitted with a magnifying mirror (Biodesign of New York). Because of the opacity of benzoyl peroxide, 20 μl of Cell Titer Blue (alamar blue from Promega G8080) was added after 48 hrs; the plates were incubated for an additional hour prior to reading. Colony-forming units were counted after 72 h of incubation to ensure that the initial inocula were between 2-5×10^6 cfu/ml.
The minimal bactericidal concentrations (MBC) for P. acnes were determined by plating 10 μl from the well determined to be the MIC plus 4 wells above the MIC on blood-supplemented Mueller-Hinton agar plate. Inoculated petri plates were incubated for 72 h at 35° C. under anaerobic conditions.

[3] = 16 P. acnes isolates, no sebum, read-out: MBC50
[4] = 16 P. acnes isolates, no sebum, read-out: MBC90
[5] = 16 P. acnes isolates, no sebum, listed as chlorhexidine

Row | Structure (SMILES) | impact of sebum on microbiological activity (MIC90/MBC90) (P. acnes [1]) | MIC90 (P. acnes [1]) [µg/mL] | MBC90 (P. acnes [2]; 16 P. acnes isolates, no sebum) [µg/mL] | MIC Range (P. acnes [2]; 16 P. acnes isolates, no sebum) | MIC50 (P. acnes [2]; 16 P. acnes isolates, no sebum) [µg/mL] | MIC90 (P. acnes [2]; 16 P. acnes isolates, no sebum) [µg/mL] | MBC (P. acnes [2]; [3]) [µg/mL] | MBC (P. acnes [2]; [4]) [µg/mL] | isolates resistant (P. acnes [2]; share of the P. acnes isolates resistant to the drug) [%] | increase of MBC90/MBCs in the presence of sebum (P. acnes [1]) | increase of MIC90 in the presence of sebum (P. acnes [1]) | MBC Range (P. acnes [2]; 16 P. acnes isolates, no sebum) | MBC Range (P. acnes [2]; [5]) [µg/mL] | MIC Range (P. acnes [2]; [5]) [µg/mL]
1 | O=C(O)c1ccccc1O [Salicylic acid] | not significantly impacted | 1000 | 2000 | 500 to 1000 µg/mL | 1000 | 1000 | 2000 | 2000 | – | – | – | – | – | –
2 | CCC[C@@H]1C[C@@H](C(=O)N[C@@H]([C@H]2O[C@H](SC)[C@H](O)[C@@H](O)[C@H]2O)[C@H](C)Cl)N(C)C1 [Clindamycin, clindamycin] | – | > 64 | – | – | 2 | > 64 | > 64 | > 64 | – | – | – | – | – | –
3 | CC[C@H]1OC(=O)[C@H](C)[C@@H](O[C@H]2C[C@@](C)(OC)[C@@H](O)[C@H](C)O2)[C@H](C)[C@@H](O[C@@H]2O[C@H](C)C[C@H](N(C)C)[C@H]2O)[C@](C)(O)C[C@@H](C)C(=O)[C@H](C)[C@@H](O)[C@]1(C)O [Erythromycin, erythromycin] | did not impact | – | – | – | 2 | – | > 64 | – | – | – | – | – | – | –
4 | CN(C)[C@@H]1C(O)=C(C(N)=O)C(=O)[C@@]2(O)C(O)=C3C(=O)c4c(O)cccc4[C@@](C)(O)[C@H]3C[C@@H]12 [Tetracycline, tetracycline] | – | 32 | – | – | 1 | > 32 | > 16 | > 32 | 44 | – | – | – | – | –
5 | O=C(OOC(=O)c1ccccc1)c1ccccc1 [Benzoyl peroxide, benzoyl peroxide] | – | 400 | – | ≦50-100 μg/ml | 50 | 50 | 200 | 200 | – | eight-fold | eight-fold | 100 to 400 µg/mL | – | –
6 | [H]/N=C(\N/C(=N/[H])NCCCCCCNC(=N)NC(=N)Nc1ccc(Cl)cc1)Nc1ccc(Cl)cc1 [Chlorhexidine, chlorhexidine] | – | 78 | – | ≦10 μg/ml | ≤ 10 | ≤ 10 | ≤ 10 | ≤ 10 | – | at least 125 fold | at least eight-fold | ≦10 μg/ml | ≤ 10 | ≤ 10
